Reference: paper PMC8217170, “Phase Ib dose-escalation study of the hypoxia-modifier Myo-inositol trispyrophosphate in patients with hepatopancreatobiliary tumors” (Nature Communications, 2021)

Test: Plasma levels and pharmacokinetics of intravenous ITPP

Structure (SMILES): O=P1(O)OC2C3OP(=O)(O)OP(=O)(O)OC3C3OP(=O)(O)OP(=O)(O)OC3C2OP(=O)(O)O1 (centres unmarked) [ITPP, Myo-inositol trispyrophosphate]
- Tmax (cohort 1, 1866 mg/m2): 6.0 h
- VSS (cohort 1, 1866 mg/m2): 11.0 L
- ITPP plasma levels: Concentration (cohort 1, patient 2, day 1, hour 0, sample 1_1_1): 0 µg/mL
- ITPP plasma levels: Concentration (cohort 1, patient 2, day 1, hour 3, sample 1_1_2): 71.4 µg/mL
- ITPP plasma levels: Concentration (cohort 1, patient 2, day 1, hour 6, sample 1_1_3): 64.4 µg/mL
- ITPP plasma levels: Concentration (cohort 1, patient 2, day 1, hour 8.5, sample 1_1_4): 37.7 µg/mL
- ITPP plasma levels: Concentration (cohort 1, patient 2, day 1, hour 9, sample 1_1_5): 27.2 µg/mL
- ITPP plasma levels: Concentration (cohort 1, patient 2, day 2, hour 0, sample 1_2_1): 0 µg/mL
- ITPP plasma levels: Concentration (cohort 1, patient 2, day 2, hour 9, sample 1_2_5): 31.6 µg/mL
- ITPP plasma levels: Concentration (cohort 1, patient 2, day 3, hour 0, sample 1_3_1): 0 µg/mL
- ITPP plasma levels: Concentration (cohort 1, patient 2, day 3, hour 9, sample 1_3_5): 28.7 µg/mL
- ITPP plasma levels: Concentration (cohort 1, patient 4, day 2, hour 9, sample 5_2_5): 32.7 µg/mL
- ITPP plasma levels: Concentration (cohort 1, patient 4, day 3, hour 0, sample 5_3_1): 0 µg/mL
- ITPP plasma levels: Concentration (cohort 1, patient 4, day 3, hour 9, sample 5_3_5): 30.4 µg/mL
- ITPP plasma levels: Concentration (cohort 1, patient 4, day 4, hour 0, sample 5_4_1): 0 µg/mL
- ITPP plasma levels: Concentration (cohort 1, patient 4, day 4, hour 9, sample 5_4_5): 28.7 µg/mL
- ITPP plasma levels: Concentration (cohort 1, patient 4, day 5, hour 0, sample 5_5_1): 0 µg/mL
- ITPP plasma levels: Concentration (cohort 1, patient 4, day 5, hour 3, sample 5_5_2): 33.3 µg/mL
- ITPP plasma levels: Concentration (cohort 1, patient 4, day 5, hour 6, sample 5_5_3): 38.4 µg/mL
- ITPP plasma levels: Concentration (cohort 1, patient 4, day 5, hour 8.5, sample 5_5_4): 40.9 µg/mL
- ITPP plasma levels: Concentration (cohort 1, patient 4, day 5, hour 9, sample 5_5_5): 29.6 µg/mL
- ITPP plasma levels: Concentration (cohort 1, patient 4, day 5, hour 10, sample 5_5_6): 22 µg/mL
- ITPP plasma levels: Concentration (cohort 1, patient 4, day 6, hour 0, sample 5_6_1): 0 µg/mL
- ITPP plasma levels: Concentration (cohort 1, patient 4, day 6, hour 9, sample 5_6_5): 32.4 µg/mL
- ITPP plasma levels: Concentration (cohort 1, patient 4, day 7, hour 0, sample 5_7_1): 0 µg/mL
- ITPP plasma levels: Concentration (cohort 1, patient 4, day 7, hour 9, sample 5_7_5): 36.7 µg/mL
- ITPP plasma levels: Concentration (cohort 1, patient 4, day 8, hour 0, sample 5_8_1): 0 µg/mL
- ITPP plasma levels: Concentration (cohort 1, patient 4, day 8, hour 9, sample 5_8_5): 31.5 µg/mL
- ITPP plasma levels: Concentration (cohort 1, patient 4, day 9, hour 0, sample 5_9_1): 0 µg/mL
- ITPP plasma levels: Concentration (cohort 1, patient 4, day 9, hour 3, sample 5_9_2): 38.7 µg/mL
- ITPP plasma levels: Concentration (cohort 1, patient 4, day 9, hour 6, sample 5_9_3): 43.5 µg/mL
- ITPP plasma levels: Concentration (cohort 1, patient 4, day 9, hour 8.5, sample 5_9_4): 42.1 µg/mL
- ITPP plasma levels: Concentration (cohort 1, patient 4, day 9, hour 9, sample 5_9_5): 26.1 µg/mL
- AUC (cohort 2, 3732 mg/m2): 847.4 µg·h/mL
- AUMC (cohort 2, 3732 mg/m2): 4925.6 h2*mg/L
- CL (cohort 2, 3732 mg/m2): 3.8 L/h
- Clast (cohort 2, 3732 mg/m2): 55.8 µg/mL
- Cmax (cohort 2, 3732 mg/m2): 120.6 µg/mL
- Cmin (cohort 2, 3732 mg/m2): 0 ng/mL
- Elimination rate λz (cohort 2, 3732 mg/m2): 0.4 h⁻¹
- Half life/T0.5 (cohort 2, 3732 mg/m2): 1.8 h
- MRT (cohort 2, 3732 mg/m2): 1.8 h
- Tlast (cohort 2, 3732 mg/m2): 10.0 h
- Tmax (cohort 2, 3732 mg/m2): 6.0 h
- VSS (cohort 2, 3732 mg/m2): 10.5 L
- ITPP plasma levels: Concentration (cohort 2, patient 5, day 1, hour 0, sample 6_1_1): 0 µg/mL
- ITPP plasma levels: Concentration (cohort 2, patient 5, day 1, hour 3, sample 6_1_2): 81 µg/mL
- ITPP plasma levels: Concentration (cohort 2, patient 5, day 1, hour 6, sample 6_1_3): 102 µg/mL
- ITPP plasma levels: Concentration (cohort 2, patient 5, day 1, hour 8.5, sample 6_1_4): 86.1 µg/mL
- ITPP plasma levels: Concentration (cohort 2, patient 5, day 1, hour 9, sample 6_1_5): 66.5 µg/mL
- ITPP plasma levels: Concentration (cohort 2, patient 5, day 1, hour 10, sample 6_1_6): 42.7 µg/mL
- ITPP plasma levels: Concentration (cohort 2, patient 5, day 2, hour 0, sample 6_2_1): 0 µg/mL
- ITPP plasma levels: Concentration (cohort 2, patient 5, day 2, hour 9, sample 6_2_5): 78.6 µg/mL
- ITPP plasma levels: Concentration (cohort 2, patient 5, day 3, hour 0, sample 6_3_1): 0 µg/mL
- ITPP plasma levels: Concentration (cohort 2, patient 5, day 3, hour 9, sample 6_3_5): 61.7 µg/mL
- ITPP plasma levels: Concentration (cohort 2, patient 5, day 4, hour 0, sample 6_4_1): 0 µg/mL
- ITPP plasma levels: Concentration (cohort 2, patient 5, day 4, hour 9, sample 6_4_5): 81.8 µg/mL
- ITPP plasma levels: Concentration (cohort 2, patient 5, day 5, hour 0, sample 6_5_1): 0 µg/mL
- ITPP plasma levels: Concentration (cohort 2, patient 5, day 5, hour 3, sample 6_5_2): 90.1 µg/mL
- ITPP plasma levels: Concentration (cohort 2, patient 5, day 5, hour 6, sample 6_5_3): 107 µg/mL
- ITPP plasma levels: Concentration (cohort 2, patient 5, day 5, hour 8.5, sample 6_5_4): 81.8 µg/mL
- ITPP plasma levels: Concentration (cohort 2, patient 5, day 5, hour 9, sample 6_5_5): 62.8 µg/mL
- ITPP plasma levels: Concentration (cohort 2, patient 5, day 5, hour 10, sample 6_5_6): 38.5 µg/mL
- ITPP plasma levels: Concentration (cohort 2, patient 5, day 6, hour 0, sample 6_6_1): 0 µg/mL
- ITPP plasma levels: Concentration (cohort 2, patient 5, day 6, hour 9, sample 6_6_5): 76.4 µg/mL
- ITPP plasma levels: Concentration (cohort 2, patient 5, day 7, hour 0, sample 6_7_1): 0 µg/mL
- ITPP plasma levels: Concentration (cohort 2, patient 5, day 7, hour 9, sample 6_7_5): 65.9 µg/mL
- ITPP plasma levels: Concentration (cohort 2, patient 5, day 8, hour 0, sample 6_8_1): 0 µg/mL
- ITPP plasma levels: Concentration (cohort 2, patient 5, day 8, hour 9, sample 6_8_5): 73.8 µg/mL
- ITPP plasma levels: Concentration (cohort 2, patient 5, day 9, hour 0, sample 6_9_1): 0 µg/mL
- ITPP plasma levels: Concentration (cohort 2, patient 5, day 9, hour 3, sample 6_9_2): 81.2 µg/mL
- ITPP plasma levels: Concentration (cohort 2, patient 5, day 9, hour 6, sample 6_9_3): 110 µg/mL
- ITPP plasma levels: Concentration (cohort 2, patient 5, day 9, hour 8.5, sample 6_9_4): 89.6 µg/mL
- ITPP plasma levels: Concentration (cohort 2, patient 5, day 9, hour 9, sample 6_9_5): 58.7 µg/mL
- ITPP plasma levels: Concentration (cohort 2, patient 6, day 1, hour 0, sample 7_1_1): 0 µg/mL
- ITPP plasma levels: Concentration (cohort 2, patient 6, day 1, hour 3, sample 7_1_2): 84.8 µg/mL
- ITPP plasma levels: Concentration (cohort 2, patient 6, day 1, hour 6, sample 7_1_3): 106 µg/mL
- ITPP plasma levels: Concentration (cohort 2, patient 6, day 1, hour 8.5, sample 7_1_4): 100 µg/mL
- ITPP plasma levels: Concentration (cohort 2, patient 6, day 1, hour 9, sample 7_1_5): 77.7 µg/mL
- ITPP plasma levels: Concentration (cohort 2, patient 6, day 1, hour 10, sample 7_1_6): 55.2 µg/mL
- ITPP plasma levels: Concentration (cohort 2, patient 6, day 2, hour 0, sample 7_2_1): 0 µg/mL
- ITPP plasma levels: Concentration (cohort 2, patient 6, day 2, hour 9, sample 7_2_5): 66.6 µg/mL
- ITPP plasma levels: Concentration (cohort 2, patient 6, day 3, hour 0, sample 7_3_1): 0 µg/mL
- ITPP plasma levels: Concentration (cohort 2, patient 6, day 3, hour 9, sample 7_3_5): 65.2 µg/mL
- ITPP plasma levels: Concentration (cohort 2, patient 6, day 4, hour 0, sample 7_4_1): 0 µg/mL
- ITPP plasma levels: Concentration (cohort 2, patient 6, day 4, hour 9, sample 7_4_5): 67.1 µg/mL
- ITPP plasma levels: Concentration (cohort 2, patient 6, day 5, hour 0, sample 7_5_1): 0 µg/mL
- ITPP plasma levels: Concentration (cohort 2, patient 6, day 5, hour 3, sample 7_5_2): 78.6 µg/mL
- ITPP plasma levels: Concentration (cohort 2, patient 6, day 5, hour 6, sample 7_5_3): 98 µg/mL
- ITPP plasma levels: Concentration (cohort 2, patient 6, day 5, hour 8.5, sample 7_5_4): 82.7 µg/mL
- ITPP plasma levels: Concentration (cohort 2, patient 6, day 5, hour 9, sample 7_5_5): 41.4 µg/mL
- ITPP plasma levels: Concentration (cohort 2, patient 6, day 5, hour 10, sample 7_5_6): 40.6 µg/mL
- ITPP plasma levels: Concentration (cohort 2, patient 6, day 6, hour 0, sample 7_6_1): 0 µg/mL
- ITPP plasma levels: Concentration (cohort 2, patient 6, day 6, hour 9, sample 7_6_5): 60.1 µg/mL
- ITPP plasma levels: Concentration (cohort 2, patient 6, day 7, hour 0, sample 7_7_1): 0 µg/mL
- ITPP plasma levels: Concentration (cohort 2, patient 6, day 7, hour 9, sample 7_7_5): 72.5 µg/mL
- ITPP plasma levels: Concentration (cohort 2, patient 6, day 8, hour 0, sample 7_8_1): 0 µg/mL
- ITPP plasma levels: Concentration (cohort 2, patient 6, day 8, hour 9, sample 7_8_5): 75.7 µg/mL
- ITPP plasma levels: Concentration (cohort 2, patient 6, day 9, hour 0, sample 7_9_1): 0 µg/mL
- ITPP plasma levels: Concentration (cohort 2, patient 6, day 9, hour 3, sample 7_9_2): 84.2 µg/mL
- ITPP plasma levels: Concentration (cohort 2, patient 6, day 9, hour 6, sample 7_9_3): 116 µg/mL
- ITPP plasma levels: Concentration (cohort 2, patient 6, day 9, hour 8.5, sample 7_9_4): 105 µg/mL
- ITPP plasma levels: Concentration (cohort 2, patient 6, day 9, hour 9, sample 7_9_5): 82 µg/mL
- ITPP plasma levels: Concentration (cohort 2, patient 6, day 9, hour 10, sample 7_9_6): 60.5 µg/mL
- ITPP plasma levels: Concentration (cohort 2, patient 7, day 1, hour 0, sample 8_1_1): 0 µg/mL
- ITPP plasma levels: Concentration (cohort 2, patient 7, day 1, hour 3, sample 8_1_2): 81.8 µg/mL
- ITPP plasma levels: Concentration (cohort 2, patient 7, day 1, hour 6, sample 8_1_3): 117 µg/mL
- ITPP plasma levels: Concentration (cohort 2, patient 7, day 1, hour 8.5, sample 8_1_4): 100 µg/mL
- ITPP plasma levels: Concentration (cohort 2, patient 7, day 1, hour 9, sample 8_1_5): 79.1 µg/mL
- ITPP plasma levels: Concentration (cohort 2, patient 7, day 1, hour 10, sample 8_1_6): 67.7 µg/mL
